Data from paper PMC2932959 (Journal of medicinal chemistry, 2010).

Legend:
[1] = target: NET; format: binding, rat; settings: selectivity ratio for SERT over NET
[2] = target: DAT (Rattus norvegicus, UniProt P23977); format: binding
Sequence of DAT (P23977 whole entry): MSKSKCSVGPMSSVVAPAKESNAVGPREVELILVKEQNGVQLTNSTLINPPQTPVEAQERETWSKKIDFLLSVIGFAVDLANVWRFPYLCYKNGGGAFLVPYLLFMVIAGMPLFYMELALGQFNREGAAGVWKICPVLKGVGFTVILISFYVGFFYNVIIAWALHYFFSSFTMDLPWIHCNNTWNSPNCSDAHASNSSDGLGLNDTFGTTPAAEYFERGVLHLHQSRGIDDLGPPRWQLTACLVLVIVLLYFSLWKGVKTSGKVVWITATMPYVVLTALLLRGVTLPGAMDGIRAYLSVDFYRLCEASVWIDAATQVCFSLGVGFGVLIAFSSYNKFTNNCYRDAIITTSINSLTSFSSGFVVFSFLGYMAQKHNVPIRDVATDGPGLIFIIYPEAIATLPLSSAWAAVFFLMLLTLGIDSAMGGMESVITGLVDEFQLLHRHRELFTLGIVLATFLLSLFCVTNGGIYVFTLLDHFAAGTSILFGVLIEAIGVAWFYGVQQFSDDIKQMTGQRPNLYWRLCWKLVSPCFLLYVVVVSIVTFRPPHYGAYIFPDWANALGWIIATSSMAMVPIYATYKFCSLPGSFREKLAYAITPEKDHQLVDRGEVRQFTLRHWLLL

Ki(NET)/Ki (SERT) [1] | Compound | Ki [2] | Ki(DAT)/Ki (SERT) ([2]; selectivity ratio for SERT over DAT)
122 | CN(C)CCCC1(c2ccc(F)cc2)OCc2cc(CCc3ccccc3)ccc21 (stereo not shown) [Compound 14, 3-(1-(4-Fluorophenyl)-5-phenethyl-1,3-dihydroisobenzofuran-1-yl)-N,N-dimethylpropan-1-amine] | – | –
193 | CN(C)CCCC1(c2ccc(F)cc2)OCc2cc(-c3cccc(F)c3)ccc21 (stereo not shown) [Compound 15, 3-(5-(3-Fluorophenyl)-1-(4-fluorophenyl)-1,3-dihydroisobenzofuran-1-yl)-N,N-dimethylpropan-1-amine] | – | –

More lines, now with the values behind:

Compound | Ki(NET)/Ki (SERT) [1] | Ki [2] | Ki(DAT)/Ki (SERT) ([2]; selectivity ratio for SERT over DAT)
CN(C)CCCC1(c2ccc(F)cc2)OCc2cc(-c3cc(F)cc(F)c3)ccc21.O=C(O)C(=O)O (stereo not shown) [Compound 13, 3-(5-(3,5-Difluorophenyl)-1-(4-fluorophenyl)-1,3-dihydroisobenzofuran-1-yl)-N,N-dimethylpropan-1-amine oxalate] | 19 | – | –
COc1cccc(-c2ccc3c(c2)COC3(CCCN(C)C)c2ccc(F)cc2)c1 (stereo not shown) [Compound 11, 3-(1-(4-Fluorophenyl)-5-(3’-methoxyphenyl)-1,3-dihydroisobenzofuran-1-yl)-N,N-dimethylpropan-1-amine] | 284 | – | –
CN(C)CCCC1(c2ccc(F)cc2)OCc2cc(Br)ccc21 (stereo not shown) [Compound 5, 3-(5-bromo-1-(4-fluorophenyl)-1,3-dihydroisobenzofuran-1-yl)-N,N-dimethylpropan-1-amine] | >10,000 | 1650 ± 112 nM | 1590
